Data as given in ChEMBL document CHEMBL1955725, “Structure-guided lead optimization of triazolopyrimidine-ring substituents identifies potent Plasmodium falciparum dihydroorotate dehydrogenase inhibitors with clinical candidate potential” (J Med Chem, 2011).

Tests used:
in vivo [1] = conditions: Swiss outbred, mouse, po, 50 mg/kg
[2] = Cmax in Swiss outbred mouse at 0.4 mg/kg, po; assay type: ADME, organism-based; set-up: dose 0.4 mg/kg, route oral; conditions: in vivo
Plasmodium falciparum [3] = test: Antimalarial activity against atovoquone-resistant Plasmodium falciparum TM90C2B by [3H]hypoxanthine incorporation assay in presence of human serum; assay type: functional, organism-based
Plasmodium falciparum [4] = test: Antimalarial activity against Plasmodium falciparum 3D7 0087/N9 infected in human RBC engrafted NOD-SCID IL-2Rgamma-null mouse assessed as reduction in parasitemia administered orally 3 days post infection qd for 4 days measured 24 hrs after final dose by FACS analysis; assay type: functional; conditions: 3D7 0087/N9, po
[5] = Cmax in human RBC engrafted NOD-SCID IL-2Rgamma-null mouse at 5.7 mg/kg, po; assay type: ADME, organism-based; set-up: dose 5.7 mg/kg, route oral; conditions: in vivo
[6] = Cmax in Swiss outbred mouse at 50 mg/kg, po; assay type: ADME, organism-based; set-up: dose 50 mg/kg, route oral; conditions: in vivo
Mus musculus [7] = test: Time plasma concentration remained above 1 uM in Swiss outbred mouse plasma at 50 mg/kg, po; assay type: ADME, organism-based; set-up: dose 50 mg/kg, route oral; conditions: in vivo
Mus musculus [8] = test: AUC (0 to 10 hrs) in human RBC engrafted NOD-SCID IL-2Rgamma-null mouse infected with Plasmodium falciparum 3D7 0087/N9 at 5.7 mg/kg, po; assay type: ADME, organism-based, Plasma; set-up: time < 10 hr, dose 5.7 mg/kg, route oral; conditions: in vivo
[9] = Cmax in Sprague-Dawley rat at 2 mg/kg, po; assay type: ADME, organism-based; set-up: dose 2 mg/kg, route oral; conditions: in vivo
in vivo [10] = conditions: Swiss outbred, mouse, po, 2 mg/kg
[11] = Terminal elimination half life in Sprague-Dawley rat at 21.2 mg/kg, po; assay type: ADME, organism-based; set-up: dose 21.2 mg/kg, route oral; conditions: in vivo, read-out: beta t1/2 (converted)
[12] = Lipophilicity, log D of the compound at pH 7.4; assay type: physicochemical; conditions: buffer
[13] = Clearance in Sprague-Dawley rat at 4.5 mg/kg, iv; assay type: ADME, organism-based; set-up: dose 4.5 mg/kg, route intravenous; conditions: in vivo
[14] = Cmax in Sprague-Dawley rat at 21.2 mg/kg, po; assay type: ADME, organism-based; set-up: dose 21.2 mg/kg, route oral; conditions: in vivo

Question: Which Tmax (in vivo [1]) does the source give for `Cc1cc(Nc2ccc(C(F)(F)F)cc2)n2nc(C(C)(F)F)nc2n1` here?
Answer: 2 h

Question: And the Cmax [2]?
Answer: 0.2 µM

Question: What about the EC50 (Plasmodium falciparum [3]) of the same compound?
Answer: 4.6 nM

Question: What about the ED50 (Plasmodium falciparum [4]) of the same compound?
Answer: 9.6 mg/kg

Question: And the ED90 (Plasmodium falciparum [4])?
Answer: 26 mg/kg

Question: And the Cmax [5]?
Answer: 6.3 µM

Question: And the Cmax [6]?
Answer: 57 µM

Question: And the Time (Mus musculus [7])?
Answer: 14 h

Question: And the AUC (Mus musculus [8])?
Answer: 2740 µM·min

Question: And the Cmax [9]?
Answer: 0.9 µM

Question: And the Tmax (in vivo [10])?
Answer: 1 h

Question: And the half-life [11]?
Answer: 17 h

Question: What about the logD [12] of the same compound?
Answer: 3.3

Question: What about the clearance [13] of the same compound?
Answer: 12.6 mL/min/kg

Question: And the Cmax [14]?
Answer: 11.4 µM
